Patent US20110306621A1, “ACYLGUANIDINE DERIVATIVES” (priority 2009, published 2011)
pKi: −log10 of the molar value.

biological target: T1, human 5-HT5A receptor (Homo sapiens, UniProt P47898); test: Test on a human 5-HT5A receptor binding inhibition ([3H]5-CT); settings: membrane from HEK293 cells for forced expression of human 5-HT5A receptor; Ki calculated from IC50 and Kd of [3H]5-CT (4.95 nM)
T1 construct: expressed in transfected cells; membranes used
Method: The ORF (open reading frame; protein coding region) of a human 5-HT5A receptor (Genbank AF498985) was cloned from a human hippocampus cDNA library, and then inserted into a pCR2.1 vector (Invitrogen), and Escherichia coli containing the plasmid was cultured in a large amount. Next, the full-length cDNA sequence of the human 5-HT5A receptor was analyzed, and recombined into a pcDNA3.1 vector (Invitrogen) as an expression vector and cultured in a large amount. HEK293 established cells (ATCC) derived from the human fetal kidney were seeded, the expression plasmid (1 μg) obtained above were added thereto with LIPOFECTAMINE 2000 (Invitrogen; 2 μl), the gene was transfected into HEK293 cells, and the expression cells were screened with a drug-resistant marker, Geneticin (G418 sulfate 500 μg/ml; Kanto Chemical Co., Inc.). Thus prepared recombinant cells which expressed the gene were cultured in a medium containing D-MEM (Dulbecco's modified eagle medium, Sigma), 10% FCS (Fetal calf serum: fetal bovine serum), 1% Pc./Sm (Penicillin/Streptomycin, Invitrogen), and 500 μg/ml G418 for 3 days. These experimental operations followed a manual for gene operation experiment and an instruction appended in a reagent, and the like, such as a known method (Sambrook, J. et al, Molecular Cloning-A Laboratory Manual”, Cold Spring Harabor laboratory, NY, 1989).
HEK293 cells for forced expressions of a human 5-HT5A receptor were cultured in a F500 plate, and scraped with a scraper. After centrifugation, the precipitate was collected, and an incubation buffer (50 mM Tris (HCl) (pH 7.4), 10 mM MgSO4, and 0.5 mM EDTA (ethylenediamine tetraacetic acid)) was added thereto. After homogenization, it was further centrifuged, and the incubation buffer was added to the precipitate, followed by thoroughly suspending. The operation was repeated, and protein concentration was measured, thereby completing preparation of the membrane.
A solution of the compound to be tested and 100 μM 5-CT (5-carboxamidetriptamine) in DMSO was added to a 96-well plate at 2 μl/well, suspended in an incubation buffer, and a membrane from HEK293 cells for forced expressions of a human 5-HT5A receptor prepared at 200 μg/ml was added at 100 μl/well. After incubation at room temperature for 15 minutes, a [^3H]5-CT solution (2 nM [^3H]5-CT, incubation buffer) was added thereto at 100 μl/well.
Separately, 100 μl of the solution was distributed into a liquid scintillation vial, and 2 ml of Aquasol II (registered trademark) was added thereto, followed by stirring. Then, radioactivity was measured by a liquid scintillation counter. It was incubated at 37° C. for 60 minutes. The reaction mixture was sucked into 96-well GF/C filter plate that had been pre-treated with 0.2% polyethyleneimine, and washed six times with an ice-cooled, 50 mM Tris (pH 7.5) buffer. The GF/C filter plate was dried.
Microscint TMPS (registered trademark) was added thereto at 40 μl/well. Radioactivity remaining on the GF/C filter plate was measured by a top counter.
The [^3H]5-CT binding inhibiting activity by the compound to be tested in each experiment was determined as an IC50 value with a radioactivity upon addition of DMSO alone being 0% inhibition, and a radioactivity upon addition of 1 μM 5-CT being 100% inhibition. Separately, Ki values were calculated from the Kd value of the [^3H]5-CT determined from Scatchard analysis, by the following equation.
Ki=IC50 (1+Concentraion of ligand added/Kd (4.95 nM))

T1 sequence (P47898 whole entry): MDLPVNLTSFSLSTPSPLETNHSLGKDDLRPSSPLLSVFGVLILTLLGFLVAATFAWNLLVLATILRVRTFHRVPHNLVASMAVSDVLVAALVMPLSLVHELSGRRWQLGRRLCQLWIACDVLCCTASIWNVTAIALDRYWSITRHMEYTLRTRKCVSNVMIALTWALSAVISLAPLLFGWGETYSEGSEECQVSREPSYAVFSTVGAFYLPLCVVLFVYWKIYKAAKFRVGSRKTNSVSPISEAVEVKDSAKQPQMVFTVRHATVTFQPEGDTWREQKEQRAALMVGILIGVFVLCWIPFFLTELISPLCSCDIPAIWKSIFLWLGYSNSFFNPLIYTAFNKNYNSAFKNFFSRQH

Compound	pKi
NC(N)=NC(=O)c1ccc2cccc(-c3cc(Cl)ccc3Cl)c2c1 [Example 76]	8.52 to 9.52
NC(N)=NC(=O)c1ccc2cccc(-c3cccc(F)c3Cl)c2c1 [Example 77]	8.52 to 9.52
NC(N)=NC(=O)c1ccc2cccc(-c3cc(F)ccc3Cl)c2c1 [Example 78]	8.52 to 9.52
Cn1nccc1-c1cccc2ccc(C(=O)N=C(N)N)cc12 [Example 79]	7.52 to 8.52
N#Cc1cccc(-c2cccc3ccc(C(=O)N=C(N)N)cc23)c1F [Example 80]	8.52 to 9.52
N#Cc1ccc(F)c(-c2cccc3ccc(C(=O)N=C(N)N)cc23)c1 [Example 81]	8.52 to 9.52
COc1ccc(-c2cccc3ccc(C(=O)N=C(N)N)cc23)c(F)c1 [Example 82]	8.52 to 9.52
COc1cc(F)c(-c2cccc3ccc(C(=O)N=C(N)N)cc23)c(F)c1 [Example 83]	8.52 to 9.52
NC(N)=NC(=O)c1ccc2cccc(-c3cc(Cl)cnc3F)c2c1 [Example 84]	7.52 to 8.52
N#Cc1c(Cl)cccc1-c1cccc2ccc(C(=O)N=C(N)N)cc12 [Example 85]	8.52 to 9.52
Cc1ccc(-c2cccc3ccc(C(=O)N=C(N)N)cc23)c(F)n1 [Example 86]	7.52 to 8.52
NC(N)=NC(=O)c1ccc2cccc(-c3ccccc3)c2c1 [Example 87]	8.52 to 9.52
NC(N)=NC(=O)c1ccc2cccc(-c3ccc(F)cc3)c2c1 [Example 88]	8.52 to 9.52
NC(N)=NC(=O)c1ccc2cccc(-c3ccc(Cl)cc3)c2c1 [Example 89]	8.52 to 9.52
COc1ccc(-c2cccc3ccc(C(=O)N=C(N)N)cc23)cc1 [Example 90]	8.52 to 9.52
Cn1ncc(Cl)c1-c1cccc2ccc(C(=O)N=C(N)N)cc12 [Example 91]	7.52 to 8.52
NC(N)=NC(=O)c1ccc2cccc(-c3cccc4c3OCO4)c2c1 [Example 92]	8.52 to 9.52
NC(N)=NC(=O)c1ccc2cccc(-c3ccccc3OC(F)F)c2c1 [Example 93]	7.52 to 8.52
NC(N)=NC(=O)c1ccc2cccc(-c3ccc(F)cc3OC(F)F)c2c1 [Example 94]	7.52 to 8.52
NC(N)=NC(=O)c1ccc2cccc(-c3cccc4c3OCC4)c2c1 [Example 95]	8.52 to 9.52
NC(N)=NC(=O)c1ccc2cccc(-c3cc(F)c(F)cc3F)c2c1 [Example 96]	8.52 to 9.52
COc1ccc(-c2cccc3ccc(C(=O)N=C(N)N)cc23)cn1 [Example 97]	7.52 to 8.52
COc1ccncc1-c1cccc2ccc(C(=O)N=C(N)N)cc12 [Example 98]	6.52 to 7.52
COc1cccc(-c2cccc3ccc(C(=O)N=C(N)N)cc23)c1C#N [Example 99]	7.52 to 8.52
Cc1ccncc1-c1cccc2ccc(C(=O)N=C(N)N)cc12 [Example 100]	7.52 to 8.52
NC(N)=NC(=O)c1ccc2cccc(-c3ccccc3-c3ccccc3)c2c1 [Example 101]	6.52 to 7.52
NC(N)=NC(=O)c1ccc2cccc(-c3cccc4ccccc34)c2c1 [Example 102]	7.52 to 8.52
NC(N)=NC(=O)c1ccc2cccc(C3CC3)c2c1 [Example 103]	7.52 to 8.52

Now from value to compound:

pKi	Compound
8.52 to 9.52	NC(N)=NC(=O)c1ccc2cccc(-c3c(O)cccc3F)c2c1 [Example 104]
8.52 to 9.52	NC(N)=NC(=O)c1ccc2cccc(-c3cccc(F)c3O)c2c1 [Example 105]
8.52 to 9.52	NC(N)=NC(=O)c1ccc2cccc(-c3cccc(O)c3F)c2c1 [Example 106]
8.52 to 9.52	NC(N)=NC(=O)c1ccc2cccc(-c3c(F)cccc3OC(F)F)c2c1 [Example 107]
7.52 to 8.52	NC(N)=NC(=O)c1ccc2cccc(-c3ncccc3Cl)c2c1 [Example 108]
8.52 to 9.52	NC(N)=NC(=O)c1ccc2cccc(-c3cccc4ncccc34)c2c1 [Example 109]
8.52 to 9.52	NC(N)=NC(=O)c1ccc2ccc(Cl)c(-c3ccccc3F)c2c1 [Example 110]
6.52 to 7.52	COc1cncc(-c2cccc3ccc(C(=O)N=C(N)N)cc23)c1 [Example 111]
7.52 to 8.52	COc1cc(-c2cccc3ccc(C(=O)N=C(N)N)cc23)ccn1 [Example 112]
8.52 to 9.52	NC(N)=NC(=O)c1ccc2ccc(F)c(-c3ccncc3F)c2c1 [Example 113]
8.52 to 9.52	Cc1ccc2ccc(C(=O)N=C(N)N)cc2c1-c1ccncc1F [Example 114]
7.52 to 8.52	NC(N)=NC(=O)c1ccc2cccc(-c3cccc4c3OC(F)(F)O4)c2c1 [Example 115]
8.52 to 9.52	NC(N)=NC(=O)c1ccc2cccc(-c3c(O)cccc3Cl)c2c1 [Example 116]
8.52 to 9.52	NC(N)=NC(=O)c1ccc2cccc(-c3c(O)ccc(F)c3F)c2c1 [Example 117]
8.52 to 9.52	NC(N)=NC(=O)c1ccc2cccc(-c3c(F)ccc(O)c3F)c2c1 [Example 118]
8.52 to 9.52	NC(N)=NC(=O)c1ccc2cccc(-c3c(F)ccc(O)c3Cl)c2c1 [Example 119]
7.52 to 8.52	COCc1cc(F)c(-c2cccc3ccc(C(=O)N=C(N)N)cc23)c(F)c1 [Example 120]
8.52 to 9.52	NC(N)=NC(=O)c1ccc2cccc(-c3c(F)cc(CO)cc3F)c2c1 [Example 121]
7.52 to 8.52	Cc1nc(-c2ccccc2)sc1-c1cccc2ccc(C(=O)N=C(N)N)cc12 [Example 122]
7.52 to 8.52	NC(N)=NC(=O)c1ccc2cccc(-c3cccc4cccnc34)c2c1 [Example 123]

pKi	Compound
8.52 to 9.52	COc1ccccc1-c1c(Cl)ccc2ccc(C(=O)N=C(N)N)cc12 [Example 124]
8.52 to 9.52	N#Cc1ccc(-c2c(Cl)ccc3ccc(C(=O)N=C(N)N)cc23)cc1 [Example 125]
6.52 to 7.52	NC(N)=NC(=O)c1ccc2cccc(-c3ccc(F)c4c3C(=O)CC4)c2c1 [Example 126]
7.52 to 8.52	COc1c(F)cc(F)c(-c2cccc3ccc(C(=O)N=C(N)N)cc23)c1F [Example 127]
8.52 to 9.52	NC(N)=NC(=O)c1ccc2cccc(-c3cccc4cnccc34)c2c1 [Example 128]
8.52 to 9.52	NC(N)=NC(=O)c1ccc2cccc(-c3ccnc4ccccc34)c2c1 [Example 129]
7.52 to 8.52	NC(N)=NC(=O)c1ccc2cccc(-c3cncc4ccccc34)c2c1 [Example 130]
8.52 to 9.52	NC(N)=NC(=O)c1ccc2cccc(-c3c(O)cc(F)cc3F)c2c1 [Example 131]
8.52 to 9.52	N#Cc1ccc(-c2cccc3ccc(C(=O)N=C(N)N)cc23)c(O)c1 [Example 132]
7.52 to 8.52	NC(N)=NC(=O)c1ccc2cccc(-c3ccncc3)c2c1 [Example 133]
7.52 to 8.52	NC(N)=NC(=O)c1ccc2cccc(-c3ccc(F)cn3)c2c1 [Example 134]
7.52 to 8.52	NC(N)=NC(=O)c1ccc2cccc(-c3ncccc3F)c2c1 [Example 135]
7.52 to 8.52	COc1ccccc1-c1c(Cl)cc(Cl)c2ccc(C(=O)N=C(N)N)cc12 [Example 136]
7.52 to 8.52	Cc1nc(-c2ccc(-c3cccc4ccc(C(=O)N=C(N)N)cc34)cc2)no1 [Example 137]
8.52 to 9.52	NC(N)=NC(=O)c1ccc2cccc(-c3ccccc3C3CC3)c2c1 [Example 138]
8.52 to 9.52	NC(N)=NC(=O)c1ccc2cccc(-c3cc(Cl)c(F)cc3F)c2c1 [Example 139]
8.52 to 9.52	NC(N)=NC(=O)c1ccc2cccc(-c3c(F)cc(F)cc3Cl)c2c1 [Example 140]
7.52 to 8.52	Cc1cc(-c2cccc3ccc(C(=O)N=C(N)N)cc23)ccn1 [Example 141]
8.52 to 9.52	NC(N)=NC(=O)c1ccc2cccc(-c3c(F)cc(O)cc3F)c2c1 [Example 142]
8.52 to 9.52	NC(N)=NC(=O)c1ccc2cccc(-c3c(F)cc(F)c(O)c3F)c2c1 [Example 143]
